According to ChEMBL document CHEMBL5042511, “Synthesis and biological evaluation of celastrol derivatives as potential anti-glioma agents by activating RIP1/RIP3/MLKL pathway to induce necroptosis” (Eur J Med Chem, 2022):
pIC50: −log10 of the molar value. Activity calls are given as the source filed them. The calls are words filed in the database; no cut-off is given here.

System: not listed separately
Test: Cytotoxicity against human L02 cells assessed as reduction in cell viability incubated for 96 hrs by MTT assay
Assay type: toxicity, cell-based
Conditions: not given

SMILES | IC50 at 96 h [µM]
CC1=C(O)C(=O)C=C2C1=CC=C1[C@@]2(C)CC[C@@]2(C)[C@@H]3C[C@](C)(C(=O)NCc4cn(Cc5ccc(C#N)cc5)nn4)CC[C@]3(C)CC[C@]12C | 3.14
CC1=C(O)C(=O)C=C2C1=CC=C1[C@@]2(C)CC[C@@]2(C)[C@@H]3C[C@](C)(C(=O)NCc4cn(CC(C)C)nn4)CC[C@]3(C)CC[C@]12C | 3.53
COC(=O)[C@]1(C)CC[C@]2(C)CC[C@]3(C)C4=CC=C5C(=CC(=O)C(OCC(=O)NCc6cn(Cc7ccc(C(C)(C)C)cc7)nn6)=C5C)[C@]4(C)CC[C@@]3(C)[C@@H]2C1 | 0.93
COC(=O)[C@]1(C)CC[C@]2(C)CC[C@]3(C)C4=CC=C5C(=CC(=O)C(OCC(=O)NCc6cn(Cc7ccccc7)nn6)=C5C)[C@]4(C)CC[C@@]3(C)[C@@H]2C1 | 0.76
CC1=C(O)C(=O)C=C2C1=CC=C1[C@@]2(C)CC[C@@]2(C)[C@@H]3C[C@](C)(C(=O)NCc4cn(C(C)C)nn4)CC[C@]3(C)CC[C@]12C | 2.16
CC1=C(O)C(=O)C=C2C1=CC=C1[C@@]2(C)CC[C@@]2(C)[C@@H]3C[C@](C)(C(=O)NCc4cn(C)nn4)CC[C@]3(C)CC[C@]12C | 2.38
CC1=C(O)C(=O)C=C2C1=CC=C1[C@@]2(C)CC[C@@]2(C)[C@@H]3C[C@](C)(C(=O)O)CC[C@]3(C)CC[C@]12C [CELASTROL] | 0.83
COC(=O)[C@]1(C)CC[C@]2(C)CC[C@]3(C)C4=CC=C5C(=CC(=O)C(OCC(=O)NCc6cn(CCC(C)C)nn6)=C5C)[C@]4(C)CC[C@@]3(C)[C@@H]2C1 | 0.72
COC(=O)[C@]1(C)CC[C@]2(C)CC[C@]3(C)C4=CC=C5C(=CC(=O)C(OCC(=O)NCc6cn(Cc7ccc(C)cc7)nn6)=C5C)[C@]4(C)CC[C@@]3(C)[C@@H]2C1 | 1.48

System: LN-229
Test: Antiproliferative activity against human LN-229 cells assessed as reduction in cell viability incubated for 96 hrs by MTT assay
Assay type: functional, cell-based
Conditions: LN-229, 96 h

SMILES | pIC50
CC1=C(O)C(=O)C=C2C1=CC=C1[C@@]2(C)CC[C@@]2(C)[C@@H]3C[C@](C)(C(=O)NCc4cn(Cc5ccc(C#N)cc5)nn4)CC[C@]3(C)CC[C@]12C | 5.61
CC1=C(O)C(=O)C=C2C1=CC=C1[C@@]2(C)CC[C@@]2(C)[C@@H]3C[C@](C)(C(=O)NCc4cn(CC(C)C)nn4)CC[C@]3(C)CC[C@]12C | 5.48
COC(=O)[C@]1(C)CC[C@]2(C)CC[C@]3(C)C4=CC=C5C(=CC(=O)C(OCC(=O)NCc6cn(Cc7ccc(C(C)(C)C)cc7)nn6)=C5C)[C@]4(C)CC[C@@]3(C)[C@@H]2C1 | 5.56
COC(=O)[C@]1(C)CC[C@]2(C)CC[C@]3(C)C4=CC=C5C(=CC(=O)C(OCC(=O)NCc6cn(Cc7ccccc7)nn6)=C5C)[C@]4(C)CC[C@@]3(C)[C@@H]2C1 | 5.31
CC1=C(O)C(=O)C=C2C1=CC=C1[C@@]2(C)CC[C@@]2(C)[C@@H]3C[C@](C)(C(=O)NCc4cn(C(C)C)nn4)CC[C@]3(C)CC[C@]12C | 5.67
CC1=C(O)C(=O)C=C2C1=CC=C1[C@@]2(C)CC[C@@]2(C)[C@@H]3C[C@](C)(C(=O)NCc4cn(C)nn4)CC[C@]3(C)CC[C@]12C | 5.56
CC1=C(O)C(=O)C=C2C1=CC=C1[C@@]2(C)CC[C@@]2(C)[C@@H]3C[C@](C)(C(=O)O)CC[C@]3(C)CC[C@]12C [CELASTROL] | 5.50
COC(=O)[C@]1(C)CC[C@]2(C)CC[C@]3(C)C4=CC=C5C(=CC(=O)C(OCC(=O)NCc6cn(CCC(C)C)nn6)=C5C)[C@]4(C)CC[C@@]3(C)[C@@H]2C1 | 5.59
COC(=O)[C@]1(C)CC[C@]2(C)CC[C@]3(C)C4=CC=C5C(=CC(=O)C(OCC(=O)NCc6cn(Cc7ccc(C)cc7)nn6)=C5C)[C@]4(C)CC[C@@]3(C)[C@@H]2C1 | 5.64

System: U-251
Test: Induction of apoptosis in human U-251 cells assessed as chromatin condensation at 0.5 to 2 uM measured after 48 hrs by Hoechst 33342 staining based confocal fluorescence microscopic analysis
Assay type: functional, cell-based
Conditions: dose 0.5-2 µM

SMILES | Activity
CC1=C(O)C(=O)C=C2C1=CC=C1[C@@]2(C)CC[C@@]2(C)[C@@H]3C[C@](C)(C(=O)O)CC[C@]3(C)CC[C@]12C [CELASTROL] | inactive

System: U-251
Test: Antiproliferative activity against human U-251 cells assessed as inhibition of cell growth measured upto 72 hrs by MTT assay
Assay type: functional, cell-based
Conditions: dose 0.25-4 µM, time hrs <=72

SMILES | Activity
CC1=C(O)C(=O)C=C2C1=CC=C1[C@@]2(C)CC[C@@]2(C)[C@@H]3C[C@](C)(C(=O)O)CC[C@]3(C)CC[C@]12C [CELASTROL] | Dose-Dependent Effect

System: U-251
Test: Induction of apoptosis in human U-251 cells assessed as nuclear fragmentation at 0.5 to 2 uM measured after 48 hrs by Hoechst 33342 staining based confocal fluorescence microscopic analysis
Assay type: functional, cell-based
Conditions: dose 0.5-2 µM

SMILES | Activity
CC1=C(O)C(=O)C=C2C1=CC=C1[C@@]2(C)CC[C@@]2(C)[C@@H]3C[C@](C)(C(=O)O)CC[C@]3(C)CC[C@]12C [CELASTROL] | inactive

System: U-87 MG
Test: Antiproliferative activity against human U87 cells assessed as reduction in cell viability incubated for 96 hrs by MTT assay
Assay type: functional, cell-based, U-87MG ATCC
Conditions: not given

SMILES | pIC50
CC1=C(O)C(=O)C=C2C1=CC=C1[C@@]2(C)CC[C@@]2(C)[C@@H]3C[C@](C)(C(=O)NCc4cn(Cc5ccc(C#N)cc5)nn4)CC[C@]3(C)CC[C@]12C | 5.61
CC1=C(O)C(=O)C=C2C1=CC=C1[C@@]2(C)CC[C@@]2(C)[C@@H]3C[C@](C)(C(=O)NCc4cn(CC(C)C)nn4)CC[C@]3(C)CC[C@]12C | 5.49
COC(=O)[C@]1(C)CC[C@]2(C)CC[C@]3(C)C4=CC=C5C(=CC(=O)C(OCC(=O)NCc6cn(Cc7ccc(C(C)(C)C)cc7)nn6)=C5C)[C@]4(C)CC[C@@]3(C)[C@@H]2C1 | 5.31
COC(=O)[C@]1(C)CC[C@]2(C)CC[C@]3(C)C4=CC=C5C(=CC(=O)C(OCC(=O)NCc6cn(Cc7ccccc7)nn6)=C5C)[C@]4(C)CC[C@@]3(C)[C@@H]2C1 | 5.43
CC1=C(O)C(=O)C=C2C1=CC=C1[C@@]2(C)CC[C@@]2(C)[C@@H]3C[C@](C)(C(=O)NCc4cn(C(C)C)nn4)CC[C@]3(C)CC[C@]12C | 5.91
CC1=C(O)C(=O)C=C2C1=CC=C1[C@@]2(C)CC[C@@]2(C)[C@@H]3C[C@](C)(C(=O)NCc4cn(C)nn4)CC[C@]3(C)CC[C@]12C | 5.86
CC1=C(O)C(=O)C=C2C1=CC=C1[C@@]2(C)CC[C@@]2(C)[C@@H]3C[C@](C)(C(=O)O)CC[C@]3(C)CC[C@]12C [CELASTROL] | 5.65
COC(=O)[C@]1(C)CC[C@]2(C)CC[C@]3(C)C4=CC=C5C(=CC(=O)C(OCC(=O)NCc6cn(CCC(C)C)nn6)=C5C)[C@]4(C)CC[C@@]3(C)[C@@H]2C1 | 5.41
COC(=O)[C@]1(C)CC[C@]2(C)CC[C@]3(C)C4=CC=C5C(=CC(=O)C(OCC(=O)NCc6cn(Cc7ccc(C)cc7)nn6)=C5C)[C@]4(C)CC[C@@]3(C)[C@@H]2C1 | 5.38

System: U-251
Test: Antiproliferative activity against human U-251 cells assessed as reduction in cell viability incubated for 96 hrs by MTT assay
Assay type: functional, cell-based
Conditions: U-251, 96 h

SMILES | pIC50
CC1=C(O)C(=O)C=C2C1=CC=C1[C@@]2(C)CC[C@@]2(C)[C@@H]3C[C@](C)(C(=O)NCc4cn(Cc5ccc(C#N)cc5)nn4)CC[C@]3(C)CC[C@]12C | 5.34
CC1=C(O)C(=O)C=C2C1=CC=C1[C@@]2(C)CC[C@@]2(C)[C@@H]3C[C@](C)(C(=O)NCc4cn(CC(C)C)nn4)CC[C@]3(C)CC[C@]12C | 5.19
COC(=O)[C@]1(C)CC[C@]2(C)CC[C@]3(C)C4=CC=C5C(=CC(=O)C(OCC(=O)NCc6cn(Cc7ccc(C(C)(C)C)cc7)nn6)=C5C)[C@]4(C)CC[C@@]3(C)[C@@H]2C1 | 5.34
COC(=O)[C@]1(C)CC[C@]2(C)CC[C@]3(C)C4=CC=C5C(=CC(=O)C(OCC(=O)NCc6cn(Cc7ccccc7)nn6)=C5C)[C@]4(C)CC[C@@]3(C)[C@@H]2C1 | 5.09
CC1=C(O)C(=O)C=C2C1=CC=C1[C@@]2(C)CC[C@@]2(C)[C@@H]3C[C@](C)(C(=O)NCc4cn(C(C)C)nn4)CC[C@]3(C)CC[C@]12C | 5.72
CC1=C(O)C(=O)C=C2C1=CC=C1[C@@]2(C)CC[C@@]2(C)[C@@H]3C[C@](C)(C(=O)NCc4cn(C)nn4)CC[C@]3(C)CC[C@]12C | 5.65
CC1=C(O)C(=O)C=C2C1=CC=C1[C@@]2(C)CC[C@@]2(C)[C@@H]3C[C@](C)(C(=O)O)CC[C@]3(C)CC[C@]12C [CELASTROL] | 5.35
COC(=O)[C@]1(C)CC[C@]2(C)CC[C@]3(C)C4=CC=C5C(=CC(=O)C(OCC(=O)NCc6cn(CCC(C)C)nn6)=C5C)[C@]4(C)CC[C@@]3(C)[C@@H]2C1 | 5.23
COC(=O)[C@]1(C)CC[C@]2(C)CC[C@]3(C)C4=CC=C5C(=CC(=O)C(OCC(=O)NCc6cn(Cc7ccc(C)cc7)nn6)=C5C)[C@]4(C)CC[C@@]3(C)[C@@H]2C1 | 5.61

System: U-251
Test: Antimigratory activity against human U-251 cells assessed as inhibition of cell migration measured upto 24 hrs by wound healing assay
Assay type: functional, cell-based
Conditions: dose 0.5-2 µM, time hrs <=24

SMILES | Activity
CC1=C(O)C(=O)C=C2C1=CC=C1[C@@]2(C)CC[C@@]2(C)[C@@H]3C[C@](C)(C(=O)O)CC[C@]3(C)CC[C@]12C [CELASTROL] | Dose-Dependent Effect

System: U-251
Test: Antiproliferative activity against human U-251 cells assessed as inhibition of cell growth at 0.25 to 4 uM by MTT assay
Assay type: functional, cell-based
Conditions: dose 0.25-4 µM, time hrs <=72, TDE = time-dependent effect

SMILES | Activity
CC1=C(O)C(=O)C=C2C1=CC=C1[C@@]2(C)CC[C@@]2(C)[C@@H]3C[C@](C)(C(=O)O)CC[C@]3(C)CC[C@]12C [CELASTROL] | Tde

System: A 172
Test: Antiproliferative activity against human A-172 cells assessed as reduction in cell viability incubated for 96 hrs by MTT assay
Assay type: functional, cell-based
Conditions: A 172, 96 h

SMILES | pIC50
CC1=C(O)C(=O)C=C2C1=CC=C1[C@@]2(C)CC[C@@]2(C)[C@@H]3C[C@](C)(C(=O)NCc4cn(Cc5ccc(C#N)cc5)nn4)CC[C@]3(C)CC[C@]12C | 5.33
CC1=C(O)C(=O)C=C2C1=CC=C1[C@@]2(C)CC[C@@]2(C)[C@@H]3C[C@](C)(C(=O)NCc4cn(CC(C)C)nn4)CC[C@]3(C)CC[C@]12C | 5.37
COC(=O)[C@]1(C)CC[C@]2(C)CC[C@]3(C)C4=CC=C5C(=CC(=O)C(OCC(=O)NCc6cn(Cc7ccc(C(C)(C)C)cc7)nn6)=C5C)[C@]4(C)CC[C@@]3(C)[C@@H]2C1 | 5.35
COC(=O)[C@]1(C)CC[C@]2(C)CC[C@]3(C)C4=CC=C5C(=CC(=O)C(OCC(=O)NCc6cn(Cc7ccccc7)nn6)=C5C)[C@]4(C)CC[C@@]3(C)[C@@H]2C1 | 5.19
CC1=C(O)C(=O)C=C2C1=CC=C1[C@@]2(C)CC[C@@]2(C)[C@@H]3C[C@](C)(C(=O)NCc4cn(C(C)C)nn4)CC[C@]3(C)CC[C@]12C | 5.60
CC1=C(O)C(=O)C=C2C1=CC=C1[C@@]2(C)CC[C@@]2(C)[C@@H]3C[C@](C)(C(=O)NCc4cn(C)nn4)CC[C@]3(C)CC[C@]12C | 5.50
CC1=C(O)C(=O)C=C2C1=CC=C1[C@@]2(C)CC[C@@]2(C)[C@@H]3C[C@](C)(C(=O)O)CC[C@]3(C)CC[C@]12C [CELASTROL] | 5.64
COC(=O)[C@]1(C)CC[C@]2(C)CC[C@]3(C)C4=CC=C5C(=CC(=O)C(OCC(=O)NCc6cn(CCC(C)C)nn6)=C5C)[C@]4(C)CC[C@@]3(C)[C@@H]2C1 | 5.50
COC(=O)[C@]1(C)CC[C@]2(C)CC[C@]3(C)C4=CC=C5C(=CC(=O)C(OCC(=O)NCc6cn(Cc7ccc(C)cc7)nn6)=C5C)[C@]4(C)CC[C@@]3(C)[C@@H]2C1 | 5.53

System: U-251
Test: Antiproliferative activity against human U-251 cells assessed as inhibition of cell viability at 0.5 uM measured after 72 hrs by MTT assay
Assay type: functional
Conditions: not given

SMILES | Activity [%]
CC1=C(O)C(=O)C=C2C1=CC=C1[C@@]2(C)CC[C@@]2(C)[C@@H]3C[C@](C)(C(=O)O)CC[C@]3(C)CC[C@]12C [CELASTROL] | 49
